The results in this text go back to patent US11767316B2, “Non-fused thiophene derivatives and their uses” (ENYO PHARMA, priority 2018, dated 2023).

As usually defined, the IC50 is the concentration that gives 50% inhibition. As usually defined, the EC50 is the concentration needed to bring the measured effect to its halfway point. Low values mean a more potent agent, high ones a less potent agent.

Experiment [1] relates to H1N1 (influenza A/New Caledonia/20/99). Kind of experiment: Antiviral effect on A549 cells infected with H1N1 (MUNANA neuraminidase readout). It counts as cell-based. The following applies: H1N1 A/New Caledonia/20/99 at MOI 0.1, 48 h post-infection, MUNANA fluorescence. On the procedure:
The antiviral effect of the compounds of the invention have been tested on A549 cell lines infected with H1N1 (influenza A/New Caledonia/20/99).
Human A549 cells (80,000 cells/well in a 96 well plate) were treated with a range of concentration of test compounds and immediately infected by H1N1 A/New Caledonia/20/99 virus (clinical isolate) at MOI of 0.1 in DMEM/1% Penicillin/streptomycin supplemented with 0.25 μg/ml TPCK trypsin (Sigma) and incubated at 37° C. in 5% CO2. 48 h post-infection, supernatants (25 μl) were collected and transferred into a 96-well black flat-bottom plate, mixed with 25 μl PBS with Ca++/Mg++(Thermo Fisher) and 50 μl of 2′-(4-Methylumbelliferyl)-α-D-N-acetylneuraminic acid sodium salt hydrate stock-solution (20 μM, MUNANA, Sigma). Plates were incubated 1 h at 37° C. and reaction is stopped by adding 100 μl of Stop Solution (glycine 0.1 M pH10.7/25% ethanol). The amount of fluorescent product released by MUNANA hydrolysis (4-MU) was measured in a Tecan spectrophotometer with excitation and emission wavelengths of 365 and 450 nm respectively.

In experiment [2] the test system is NFκB. Kind of experiment: NFκB reporter assay (NanoLuciferase) in A549 cells, TNFα stimulation. It counts as cell-based. The settings on record: Homo sapiens, 4 ng/ml TNFα, 6 hours. The source says: Compounds of the present invention have been tested for their capacity to inhibit NFκB.
The NFκB reporter construct was made by cloning 5 NFκB responsive elements upstream of a NanoLuciferase reporter gene flanked by AAVS1 genomic sequences.
NFκB Responsive element fused with NanoLuciferase and SV40 late Poly(A) signal was amplified from pNL3.2-NFκB-Nluc (Promega) using NFKB-NLUC-F and NFKB-NLUC-R primers and inserted by Infusion (TaKaRa) in AAVS1 SA-2A-puro-pA donor plasmid (Hockemeyer et al, Nat Biotechnol. 2009, 27, 851-7) digested by Sal1. pCRISPR AAVS1-T2 expressing a guide RNA (gRNA) to target human AAVS1 (T2 target sequence) was constructed by inserting AAVS1-T2A hybridized primers in pLentiCRISPR v2-blast (Sanjana et al, Nat Methods. 2014, 11, 783-4) digested by Bsmb1.
A549 cells were transfected by the plasmids and puromycine selected for 5 days (1 μg mL-1). Then clones were obtained by limiting dilution and selected to maximize TNFα dependent NFkB-NanoLuciferase induction.
The reporter cells were seeded on a 96-well plate for overnight with DMEM including 10% FBS. Test compounds were added at varying concentrations. The cells then were treated with 4 ng/ml TNFα (Peprotech, ref E251) in DMEM+10% FBS. NanoGlo luciferase assay (Promega) was carried out 6 hours later. Luminescence was measured using a Spark 20M spectrofluorimeter (Tecan). Values were normalized to the luminescence measured in untreated cells.

The mark [3] stands for this setting: Influenza A virus, H1N1, A549, 48 h, read-out: IC50.

The structures appear in SMILES notation. Where two headings read alike, the source gives them in different places.

On to `O=C(Nc1scc(C2CCc3ccccc3C2)c1C(=O)O)c1ccc(OC(F)F)cc1` (stereo not shown) [#152], for which the IC50 in experiment [1] (read-out: IC50) is 2 nM. The EC50 in experiment [2] was found to be 160 nM.
Regarding `COCCCNc1ccc(C(=O)Nc2scc(C3CCc4ccccc43)c2C(=O)O)cc1` (stereo not shown) [#57], the IC50 in experiment [1] (setting [3]) is 76 nM. In experiment [2], this compound returned an EC50 of 80 nM.
Regarding `CN1CCOc2cc(C(=O)Nc3scc(C4CCc5ccccc5C4)c3C(=O)O)ccc21` (stereo not shown) [#86], the IC50 in experiment [1] (setting [3]) was found to be 2 nM. The same compound showed an EC50 in experiment [2] of 40 nM.
As for `O=C(Nc1scc(C2CCc3ccccc3C2)c1C(=O)O)c1ccc(N2C[C@@H]3C[C@H]2CO3)cc1` (stereo partly shown) [#140], the IC50 in experiment [1] (setting [3]) amounted to 3.5 nM. The same compound came in with an EC50 in experiment [2] of 40 nM.
Consider `O=C(Nc1sc(Cl)c(C2CCc3ccccc3C2)c1C(=O)O)c1ccccc1` (stereo not shown) [#17], for which the IC50 in experiment [1] (setting [3]) is 38.3 nM. In experiment [2], the EC50 came to 180 nM.
For the compound `O=C(Nc1scc(C2CCCc3ccccc32)c1C(=O)O)c1ccccc1` (stereo not shown) [#124], in experiment [1] (setting [3]), the IC50 came out at 237 nM. In experiment [2], this compound had a concentration giving a half-maximal response (EC50) of 910 nM.
As to `O=C(Nc1scc(C2CCc3ccccc32)c1C(=O)O)c1ccccc1` (stereo not shown) [#19], in experiment [1] (setting [3]), the IC50 worked out at 67 nM. For the same compound, in experiment [2], a half-maximal effect (EC50) was put at 200 nM.
Regarding `COc1ccc(C(=O)Nc2scc(C3CCc4ccccc4C3)c2C(=O)O)cc1F` (stereo not shown) [#162], the IC50 in experiment [1] (setting [3]) turned out to be 4 nM. Further, the EC50 in experiment [2] was 200 nM.
For `CC(C)Oc1ccc(C(=O)Nc2scc(C3CCc4ccccc4C3)c2C(=O)O)cc1` (stereo not shown) [#180], in that order: 0.3 nM and 50 nM.
For `COCCNc1cccc(C(=O)Nc2scc(C3CCc4ccccc4C3)c2C(=O)O)c1` (stereo not shown) [#94], in experiment [1] (setting [3]), the IC50 stood at 2 nM. The same compound returned an EC50 in experiment [2] of 90 nM.
In the case of `C[C@@H]1COCCN1c1ccc(C(=O)Nc2scc(C3CCc4ccccc4C3)c2C(=O)O)cc1` (stereo partly shown) [#145], the IC50 in experiment [1] (setting [3]) was determined as 32 nM.
Take `O=C(Nc1scc(C2CCc3ccccc3C2)c1C(=O)O)c1ccc(N2CC3CC(C2)O3)cc1` (stereo not shown) [#139]: the IC50 in experiment [1] (setting [3]) turned out to be 15 nM.
Regarding `O=C(Nc1scc(C2CCc3ccccc3C2)c1C(=O)O)c1ccc(F)cc1` (stereo not shown) [#151], the IC50 in experiment [1] (read-out: IC50) was 2 nM. The midpoint of the response in experiment [2], the EC50, lay at 90 nM.
For the compound `O=C(Nc1scc(-c2ccc3c(c2)CCC3)c1C(=O)O)c1ccccc1` [#3], the IC50 in experiment [1] (setting [3]) was determined as 280 nM.
For `COc1ccc(C(=O)Nc2scc(C3CCc4ccccc4C3)c2C(=O)O)cc1` (stereo not shown) [#154], the IC50 in experiment [1] (setting [3]) was determined as 2.7 nM.
As to `O=C(Nc1scc(C2CCc3ccccc3C2)c1C(=O)O)c1ccc(N2CCCS2(=O)=O)cc1` (stereo not shown) [#184], the IC50 in experiment [1] (Influenza A virus, H1N1, A549, 48 h) worked out at 32 nM.
Consider `O=C(Nc1scc(C2CCc3ccccc32)c1C(=O)O)c1ccc(N2CCOCC2)cc1` (stereo not shown) [#56], for which, in experiment [1] (setting [3]), the IC50 was found to be 110 nM.
For `O=C(Nc1scc(C2CCc3ccccc3C2)c1C(=O)O)c1ccc(NCC2CCOCC2)c(O)c1` (stereo not shown) [#134], the IC50 in experiment [1] (setting [3]) was found to be 24 nM.
Take `COc1ccc(C(=O)Nc2scc(C3CCc4ccccc4C3)c2C(=O)O)nc1` (stereo not shown) [#187]: the IC50 in experiment [1] (setting [3]) stood at 15 nM.
In the case of `O=C(Nc1scc(C2CCc3ccccc3C2)c1C(=O)O)c1ccc(OC2CCC2)cc1` (stereo not shown) [#178], in experiment [1] (setting [3]), the IC50 was determined as 122 nM.
Regarding `COCCCCNc1ccc(C(=O)Nc2scc(C3CCc4ccccc4C3)c2C(=O)O)cc1` (stereo not shown) [#135], in experiment [1] (setting [3]), the IC50 was found to be 3 nM.
With `COC1CN(c2cccc(C(=O)Nc3scc(C4CCc5ccccc5C4)c3C(=O)O)c2)C1` (stereo not shown) [#93], in experiment [1] (setting [3]), the IC50 was 8 nM.
With `O=C(Nc1scc(C2CCc3ccccc3C2)c1C(=O)O)c1ccc(NCC2(O)CCOCC2)cc1` (stereo not shown) [#136], the IC50 in experiment [1] (setting [3]) is 30 nM.
